Results on 16 compounds are retold here after ChEMBL document CHEMBL3616471, “Synthesis and in vitro antitumor evaluation of betulin acid ester derivatives as novel apoptosis inducers” (Eur J Med Chem, 2015).

By IC50 is commonly meant the concentration that inhibits the measured activity by half. The low end stands for higher potency, the high end for lower potency.

Data set [1] deals with MGC-803. Nature of the data set: Cytotoxicity against human MGC803 cells after 72 hrs by MTT assay. Conditions: MGC-803, 72 h. It counts as functional, cell-based. Background: Tetrazolium dyes change colour on reduction, which living cells bring about.
In data set [2] the test system is MCF7. Nature of the data set: Cytotoxicity against human MCF7 cells after 72 hrs by MTT assay. It counts as functional, cell-based. Conditions: MCF7, 72 h.
Data set [3] concerns A-375. Briefly: Cytotoxicity against human A375 cells after 72 hrs by MTT assay. It counts as functional, cell-based. Conditions: A-375, 72 h.
For data set [4], the system named is Bcap37. Briefly: Cytotoxicity against human Bcap37 cells after 72 hrs by MTT assay. It counts as functional, cell-based. Conditions: Bcap37, 72 h.
Data set [5] deals with PC-3. Nature of the data set: Cytotoxicity against human PC3 cells after 72 hrs by MTT assay. The format is functional, cell-based. Conditions: PC-3, 72 h.
Data set [6] can be described thus: Cytotoxicity against mouse NIH/3T3 cells after 72 hrs by MTT assay. Conditions: nih3t3, 72 h. It counts as cell-based.
Data set [7] deals with Bcap37. Briefly: Selectivity index, ratio of IC50 for mouse NIH/3T3 cells to IC50 for human Bcap37 cells. The format is functional.
The subject of data set [8] is MCF7. Nature of the data set: Selectivity index, ratio of IC50 for mouse NIH/3T3 cells to IC50 for human MCF7 cells. The format is functional.
The test system of data set [9] is PC-3. Briefly: Selectivity index, ratio of IC50 for mouse NIH/3T3 cells to IC50 for human PC3 cells. It counts as functional.
For data set [10], the system named is A-375. Briefly: Selectivity index, ratio of IC50 for mouse NIH/3T3 cells to IC50 for human A375 cells. The format is functional.
The test system of data set [11] is MGC-803. Briefly: Selectivity index, ratio of IC50 for mouse NIH/3T3 cells to IC50 for human MGC803 cells. The format is functional.

As to `C=C(C)[C@@H]1CC[C@]2(COC(=O)c3ccc(F)cc3)CC[C@]3(C)[C@H](CC[C@@H]4[C@@]5(C)CC[C@H](O)C(C)(C)[C@@H]5CC[C@]43C)[C@@H]12`, the IC50 in the data set on MGC-803 [1], in the data set on MCF7 [2], in the data set on A-375 [3], in the data set on Bcap37 [4] and in the data set on PC-3 [5] was greater than 100 µM throughout.
For the compound `C=C(C)[C@@H]1CC[C@]2(COC(=O)c3ccccc3C)CC[C@]3(C)[C@H](CC[C@@H]4[C@@]5(C)CC[C@H](O)C(C)(C)[C@@H]5CC[C@]43C)[C@@H]12`, the 50% inhibitory concentration (IC50) with MGC-803 [1], in the data set on MCF7 [2], with A-375 [3], in the data set with Bcap37 [4] and in the data set on PC-3 [5] was greater than 100 µM each time.
As to `C=C(C)[C@@H]1CC[C@]2(COC(=O)c3ccccc3C(F)(F)F)CC[C@]3(C)[C@H](CC[C@@H]4[C@@]5(C)CC[C@H](OC(=O)c6ccccc6C(F)(F)F)C(C)(C)[C@@H]5CC[C@]43C)[C@@H]12`, the concentration for half-maximal inhibition (IC50) in the data set with MGC-803 [1], with MCF7 [2], with A-375 [3], in the data set on Bcap37 [4] and in the data set with PC-3 [5] was greater than 100 µM in each case.
Consider `C=C(C)[C@@H]1CC[C@]2(COC(=O)c3cccc([N+](=O)[O-])c3)CC[C@]3(C)[C@H](CC[C@@H]4[C@@]5(C)CC[C@H](OC(=O)c6cccc([N+](=O)[O-])c6)C(C)(C)[C@@H]5CC[C@]43C)[C@@H]12`, for which the IC50 with MGC-803 [1], in the data set on MCF7 [2], in the data set on A-375 [3], with Bcap37 [4] and in the data set on PC-3 [5] was greater than 100 µM each time.
Consider `C=C(C)[C@@H]1CC[C@]2(COC(=O)c3cccc(Cl)c3)CC[C@]3(C)[C@H](CC[C@@H]4[C@@]5(C)CC[C@H](O)C(C)(C)[C@@H]5CC[C@]43C)[C@@H]12`, for which the half-inhibitory concentration (IC50) in the data set with MGC-803 [1], in the data set with MCF7 [2], in the data set with A-375 [3], in the data set with Bcap37 [4] and in the data set with PC-3 [5] was greater than 100 µM in each case.
`C=C(C)[C@@H]1CC[C@]2(COC(=O)CCC(=O)O)CC[C@]3(C)[C@H](CC[C@@H]4[C@@]5(C)CC[C@H](O)C(C)(C)[C@@H]5CC[C@]43C)[C@@H]12`: the IC50 in the data set on MGC-803 [1] was 11.3 µM; with MCF7 [2], 14.5 µM; with A-375 [3], 17.9 µM; with Bcap37 [4], 15.7 µM; with PC-3 [5], 12.5 µM. Further, in data set [6], the Activity entry was “Non-toxic”. Moreover, the “Ratio IC50” value with Bcap37 [7] is on record as 4.64; in the data set on MCF7 [8], 5.02; in the data set on PC-3 [9], 5.83; in the data set on A-375 [10], 4.07; in the data set with MGC-803 [11] it was 6.45.
With `C=C(C)[C@@H]1CC[C@]2(COC(=O)c3ccccc3)CC[C@]3(C)[C@H](CC[C@@H]4[C@@]5(C)CC[C@H](OC(=O)c6ccccc6)C(C)(C)[C@@H]5CC[C@]43C)[C@@H]12`, the IC50 with MGC-803 [1], with MCF7 [2], in the data set with A-375 [3], in the data set on Bcap37 [4] and with PC-3 [5] was greater than 100 µM each time.
As for `C=C(C)[C@@H]1CC[C@]2(COC(=O)CCC(=O)N3CCOCC3)CC[C@]3(C)[C@H](CC[C@@H]4[C@@]5(C)CC[C@H](O)C(C)(C)[C@@H]5CC[C@]43C)[C@@H]12`, the IC50 amounted to 9.2 µM in the data set on MGC-803 [1]; 11.5 µM with MCF7 [2]; 18.5 µM with A-375 [3]; 6.4 µM with Bcap37 [4]; 11.2 µM in the data set on PC-3 [5]. In data set [6], the Activity result was “Non-toxic”. For the same compound, the “Ratio IC50” value is given as 8.97 with Bcap37 [7]; 4.99 in the data set on MCF7 [8]; 5.12 in the data set with PC-3 [9]; 3.1 in the data set on A-375 [10]; 6.23 in the data set with MGC-803 [11].
`C=C(C)[C@@H]1CC[C@]2(COC(=O)CCC(=O)N3CCCC3)CC[C@]3(C)[C@H](CC[C@@H]4[C@@]5(C)CC[C@H](O)C(C)(C)[C@@H]5CC[C@]43C)[C@@H]12`: the IC50 with MGC-803 [1] is 8.9 µM; with MCF7 [2], 10.1 µM; in the data set on A-375 [3], 12.6 µM; in the data set with Bcap37 [4], 7.9 µM; in the data set on PC-3 [5], 8.3 µM. Moreover, the Activity result in data set [6] is on record as “Non-toxic”. For the same compound, the “Ratio IC50” value with Bcap37 [7] is reported as 5.6; in the data set with MCF7 [8], 4.38; in the data set with PC-3 [9] it was 5.33; with A-375 [10], 3.52; with MGC-803 [11], 4.97.
For `C=C(C)[C@@H]1CC[C@]2(COC(=O)/C=C/C(=O)N3CCCCC3)CC[C@]3(C)[C@H](CC[C@@H]4[C@@]5(C)CC[C@H](O)C(C)(C)[C@@H]5CC[C@]43C)[C@@H]12`, the IC50 was determined as 5.3 µM in the data set on MGC-803 [1]; 6.3 µM in the data set on MCF7 [2]; 14.4 µM with A-375 [3]; 7.4 µM with Bcap37 [4]; 9.6 µM in the data set on PC-3 [5]. Also, in data set [6], the Activity entry is “Toxic”. For the same compound, the “Ratio IC50” value in the data set on Bcap37 [7], in the data set with MCF7 [8], with PC-3 [9], in the data set on A-375 [10] and in the data set on MGC-803 [11] was greater than 3 in each case.
On to `C=C(C)[C@@H]1CC[C@]2(COC(=O)c3ccccc3Cl)CC[C@]3(C)[C@H](CC[C@@H]4[C@@]5(C)CC[C@H](OC(=O)c6ccccc6Cl)C(C)(C)[C@@H]5CC[C@]43C)[C@@H]12`, for which the IC50 in the data set with MGC-803 [1], with MCF7 [2], in the data set on A-375 [3], with Bcap37 [4] and in the data set on PC-3 [5] was greater than 100 µM each time.
Regarding `C=C(C)[C@@H]1CC[C@]2(CO)CC[C@]3(C)[C@H](CC[C@@H]4[C@@]5(C)CC[C@H](O)C(C)(C)[C@@H]5CC[C@]43C)[C@@H]12` [BETULIN], the IC50 in the data set on MGC-803 [1] came out at 30.2 µM; in the data set on MCF7 [2], 19.3 µM; with A-375 [3], 28 µM; in the data set on Bcap37 [4], 25.5 µM; with PC-3 [5], 22.4 µM.
On the same counts, the results for `C=C(C)[C@@H]1CC[C@]2(COC(=O)c3ccccc3)CC[C@]3(C)[C@H](CC[C@@H]4[C@@]5(C)CC[C@H](O)C(C)(C)[C@@H]5CC[C@]43C)[C@@H]12` are greater than 100 µM, greater than 100 µM, greater than 100 µM, greater than 100 µM and greater than 100 µM.
On the same counts, the results for `C=C(C)[C@@H]1CC[C@]2(COC(=O)/C=C/c3ccccc3)CC[C@]3(C)[C@H](CC[C@@H]4[C@@]5(C)CC[C@H](O)C(C)(C)[C@@H]5CC[C@]43C)[C@@H]12` are greater than 100 µM, greater than 100 µM, greater than 100 µM, greater than 100 µM and greater than 100 µM.
With `C=C(C)[C@@H]1CC[C@]2(COC(=O)Cc3ccc(Cl)cc3)CC[C@]3(C)[C@H](CC[C@@H]4[C@@]5(C)CC[C@H](O)C(C)(C)[C@@H]5CC[C@]43C)[C@@H]12`, the IC50 with MGC-803 [1], in the data set with MCF7 [2], in the data set with A-375 [3], in the data set on Bcap37 [4] and in the data set on PC-3 [5] was greater than 100 µM each time.
As for `C=C(C)[C@@H]1CC[C@]2(COC(=O)c3ccccc3C(F)(F)F)CC[C@]3(C)[C@H](CC[C@@H]4[C@@]5(C)CC[C@H](O)C(C)(C)[C@@H]5CC[C@]43C)[C@@H]12`, the IC50 in the data set with MGC-803 [1], in the data set with MCF7 [2], in the data set on A-375 [3], with Bcap37 [4] and in the data set with PC-3 [5] was greater than 100 µM in each case.
